{
  "source": "patent US11298372B2",
  "about": "“Composition for ameliorating loss of hair and graying of hair, and use thereof” (National University Corporation Tokyo Medical and Dental …, priority 2016, dated 2022)",
  "key": {"[1]": {"tested_on": "Col17A1", "assay": "Induction of COL17A1 expression in HaCat cells (Western blotting)", "assay_type": "cell-based, human", "details": "48 hours", "method": "HaCat cells (human epidermal keratinocyte strain) were seeded in 10% FBS-containing D-MEM medium in a 6-well plate at 1×10^5 cells per well, and apocynin was added to be 1-60 μM. After 48 hours of culturing, an anti-Col17A1 antibody was used as the primary antibody, and Western blotting was carried out. An anti-GAPDH antibody was used as the internal control. The 180 KDa band of Col17A1 and the internal control GAPDH band were quantified for their densities using an LAS-3000 luminescence image analyzer. […] HaCat cells (human epidermal keratinocyte strain) were seeded in 10% FBS-containing D-MEM medium in a 6-well plate at 1×10^5 cells per well, and ascorbic acid (Wako Pure Chemical Industries, Ltd.) was added to be 0.3-60 jag/ml. After 48 hours of culturing, an anti-Col17A1 antibody was used as the primary antibody, and Western blotting was carried out. An anti-β-tubulin antibody was used as the internal control. The 180 KDa band of Col17A1 and the internal control β-tubulin band were quantified for their densities using an LAS-3000 luminescence image analyzer. […] HaCat cells (human epidermal keratinocyte strain) were seeded in 10% FBS-containing D-MEM medium in a 6-well plate at 1×10^5 cells per well, and Marimastat (MMP inhibitor) was added to be 3 μM. After 48 hours of culturing, an anti-Col17A1 antibody was used as the primary antibody, and Western blotting was carried out. An anti-β-tubulin antibody was used as the internal control. The 180 KDa band of Col17A1 and the internal control β-tubulin band were quantified for their densities using an LAS-3000 luminescence image analyzer."}, "[2]": {"tested_on": "irradiated mice", "assay": "Test of intradermal administration in irradiated mice", "assay_type": "in vivo, mouse", "details": "7-week-old male C57BL/6NCrSlc mice, 5 Gy, 5 mg/ml in DMSO 200 μl (1000 μg) intradermally once a day, 5 times", "method": "The hair on the lower back of 7-week-old male C57BL/6NCrSlc mice was removed. Sivelestat was dissolved in DMSO to be 5 mg/ml and 200 μl (=1000 μg) thereof was administered intradermally on back of the sivelestat group mice. On the back of the control group mice, 200 μl of DMSO was administered intradermally. After intradermal administration, the skin of the two groups of mice (day 0) was irradiated with a low voltage radiation of 5 Gy using CABINET X-RAY SYSTEM (Faxitron X-ray corporation). Up to day 4, the same medicinal agents described above were intradermally administered on the back once a day (for a total of 5 times), and weekly follow-ups were carried out after that."}, "[3]": {"tested_on": "irradiated mice", "assay": "Application test on the back of irradiated mice", "assay_type": "in vivo, mouse", "details": "7-week-old male C57BL/6NCrSlc mice, 5 Gy, 10 mg/ml in DMSO 125 μl applied on the back once a day, 5 times", "method": "The hair on the lower back of 7-week-old male C57BL/6NCrSlc mice was removed. Sivelestat was dissolved in DMSO to be 10 mg/ml and 125 μl (=[…]) thereof was applied on the back of the sivelestat group mice. On the back of the control group mice, 125 μl of DMSO was applied. After application on the back, the skin of the two groups of mice (day 0) was irradiated with a low voltage radiation of 5 Gy using CABINET X-RAY SYSTEM (Faxitron X-ray Corporation). Up to day 4, the same medicinal agents described above were applied on the back once a day (for a total of 5 times), and weekly follow-ups were carried out after that."}, "[4]": {"tested_on": "aged mice", "assay": "Hair-increasing effect in aged mice (application on the back of the neck)", "assay_type": "in vivo, mouse", "details": "26-27-month-old female C57BL/6NCrSlc mice, 100 μl of 200 μM solution applied for 28 days, day 28", "method": "Apocynin (A727200; Tront Research Chemicals) was adjusted to the concentration of 20 mM with DMSO, and 200 LM apocynin solution (1% apocynin 20 mM, 49% water, 50% ethanol) was prepared as the solution to be applied on mice. As the control solution, 1% DMSO (Sigma Aldrich), 49% water, 50% ethanol was prepared. After an anesthetic procedure was performed on five 27-month-old and one 26-month-old female C57BL/6[…] mice, hair on the back of the neck was removed. The three mice in the control solution treatment group were applied with 100 μl of the control solution, and the apocynin solution treatment group with 100 μl of the 200 μM apocynin solution for 28 days. For the follow-ups, photo images of the representative first day (day 1) and the last day (day 28) are shown (FIG. 11)."}, "[5]": {"tested_on": "aged mice", "assay": "Comparison of the hair-increasing effects of apocynin and minoxidil in aged mice", "assay_type": "in vivo, mouse", "details": "17-month-old female C57BL/6NCrSIc mice, 100 μl of 200 μM solution applied for 28 days, day 14; comparator Ri-UP X5 PLUS (minoxidil 5 g/100 ml)", "method": "Apocynin (A727200; Tront Research Chemicals) was adjusted to the concentration of 20 mM with DMSO, and 200 LM apocynin solution (1% apocynin 20 mM, 49% water, 50% ethanol) was prepared as the solution to be applied on mice. As the control solution, 1% DMSO (Sigma Aldrich), 49% water, 50% ethanol was prepared. For the minoxidil solution, Ri-UP X5 PLUS® (5 g/100 ml, Taisho Pharmaceutical Co., Ltd.) was used. After six 17-month-old female C57BL/6[…] mice were anesthetized by inhalation of isoflurane (Pfizer), the hair on the back of the neck was removed. The three mice in the minoxidil treatment group were applied with 100 μl of minoxidil, and the apocynin treatment group with 100 μl of the 200 μM apocynin solution for 28 days. For the follow-ups, photo images of the representative first day (day 1) and the last day (day 28) are shown (FIG. 12)."}},
  "data": [
    {"smiles": "CNC(=O)[C@@H](NC(=O)[C@H](CC(C)C)[C@H](O)C(=O)NO)C(C)(C)C", "note": "[Marimastat]", "values": [
      {"measurement": "Col17A1 expression (180 KDa band, Western blotting)", "setting": "[1]; Marimastat 3 μM, β-tubulin internal control", "value": "increase of Col17A1 was observed"}
    ]},
    {"smiles": "CC(C)(C)C(=O)Oc1ccc(S(=O)(=O)Nc2ccccc2C(=O)NCC(=O)[O-])cc1.O.O.O.O.[Na+]", "note": "[Sivelestat, Monosodium N-{2-[4-(2,2-dimethylpropanoyloxy)-phenylsulfonylamino]benzoyl}aminoacetate tetrahydrate]", "values": [
      {"measurement": "hair growth versus control group", "setting": "[2]", "value": "tendency to grow more"},
      {"measurement": "graying", "setting": "[2]; 14 weeks and 28 weeks", "value": "suppression of graying was seen"},
      {"measurement": "hair growth versus control group", "setting": "[3]", "value": "tendency to grow faster"},
      {"measurement": "graying", "setting": "[3]; 14 weeks and 28 weeks", "value": "suppression of graying was seen"}
    ]},
    {"smiles": "COc1cc(C(C)=O)ccc1O", "note": "[apocynin]", "values": [
      {"measurement": "hair growth effect versus control solution", "setting": "[4]", "value": "significant hair growth effect compared to the control group"},
      {"measurement": "Col17A1 expression (180 KDa band, Western blotting)", "setting": "[1]; apocynin 1-60 μM, GAPDH internal control", "value": "increase of Col17A1 was observed along with the increase of apocynin"},
      {"measurement": "hair growth effect versus minoxidil", "setting": "[5]", "value": "significant hair growth effect compared to the minoxidil-administered group"}
    ]},
    {"smiles": "O=C1O[C@H]([C@@H](O)CO)C(O)=C1O", "note": "[ascorbic acid]", "values": [
      {"measurement": "Col17A1 expression (180 KDa band, Western blotting)", "setting": "[1]; ascorbic acid 0.3-60 jag/ml, β-tubulin internal control", "value": "increase of Col17A1 was observed along with the increase of ascorbic acid"}
    ]}
  ]
}
